Measurements from patent US20090030037A1, “Sustained Release Formulation and Dosing Schedules of Leukotriene Synthesis Inhibitor for Human Therapy” (deCODE Genetics ehf., priority 2005, published 2009).

Experiments:
[1] = test system: MPO; experiment: Study DG-031-201: ionomycin-induced MPO release in whole blood ex vivo; set-up: species or system human; details: difference visit 2 to 5; 500 and 750 mg/day vs placebo
Protocol: (§1) Genet. 2004). Apart from FLAP, allele A of the SNP SG12S25 in the LTA4 hydrolase gene, another gene in the LT pathway, is also associated with MI, as described in PCT application no. PCT/US03/32556 and PCT/US04/30582 incorporated by reference.
(§2) Patients who met the study eligibility criteria were enrolled and randomized into 3 different dose-level groups: (1) 64 patients on 250 mg/day therapy with DG-031 (250 mg q.d.), vs placebo; (2) 64 patients on 500 mg/day therapy with DG-031 (250 mg b.i.d.) vs placebo; and (3) 63 patients on 750 mg/day therapy with DG-031 (250 mg t.i.d.) vs placebo. […] All patients received 3 tablets per day. Treatment periods, 4 weeks in duration each, were separated by a 2-week washout period. The placebo tablets were identical in shape, color, form and taste to the active tablets except that they contained no active drug ingredients. Treatment with DG-031 or placebo was in addition to the subject's standard care, including all medications and treatment plan as prescribed by the subject's cardiologist prior to enrolment. […]
(§3) All data were analyzed according to a pre-established statistical analysis plan (SAP) and by intention-to-treat (ITT). […] The difference between DG-031 and placebo treatment was the primary outcome, assessed separately for each of the biomarkers. […]

[2] = test system: Amyloid A; experiment: Study DG-031-201: amyloid A in serum; format: in vivo, human; details: difference visit 2 to 5; 500 and 750 mg/day vs placebo
Protocol: as §1, §2, §3

[3] = test system: CRP; experiment: Study DG-031-201: Hs-CRP in serum; format: in vivo, human; details: for CRP, change: Study 201, 2-6 wks
Protocol: as §1
Patients who met the study eligibility criteria were enrolled and randomized into 3 different dose-level groups: (1) 64 patients on 250 mg/day therapy with DG-031 (250 mg q.d.), vs placebo; (2) 64 patients on 500 mg/day therapy with DG-031 (250 mg b.i.d.) vs placebo; and (3) 63 patients on 750 mg/day therapy with DG-031 (250 mg t.i.d.) vs placebo. […] All patients received 3 tablets per day. Treatment periods, 4 weeks in duration each, were separated by a 2-week washout period. The placebo tablets were identical in shape, color, form and taste to the active tablets except that they contained no active drug ingredients. Treatment with DG-031 or placebo was in addition to the subject's standard care, including all medications and treatment plan as prescribed by the subject's cardiologist prior to enrolment. A total of 191 subjects were enrolled, with 172 completing all 8 visits or 8 patients short of the target of 180 patients.
The primary objective was to determine whether the FLAP inhibitor has a statistically significant effect, compared to placebo, on one or more biomarkers of MI risk, including: (1) ionomycin-induced LTB4 and MPO release by neutrophils ex vivo; (2) MPO, CRP, N-tyrosine, Lp-PLA2 or amyloid A in serum, or (3) LTE4 in urine. The secondary objective was to determine whether the effect of DG-031 was dose-dependent. The tertiary objective was to assess other biomarkers (See Results). Evaluation of safety and tolerability of the drug was also a primary endpoint.
All data were analyzed according to a pre-established statistical analysis plan (SAP) and by intention-to-treat (ITT). Each arm of the study, as well as pooled sets (combining dose levels), was considered for the primary analysis. Each such set is an AB/BA cross-over design and in the primary analysis of efficacy, the levels of biomarkers of MI risk at the end of the treatment periods (visits 4 and 7) were used as primary response variables. The difference between DG-031 and placebo treatment was the primary outcome, assessed separately for each of the biomarkers. Treatment effect was tested using a two-sample t-test on the period differences for suitably transformed response variables, under an assumption of normality of the transformed data. We report treatment effect as one half of the observed mean differences in the two-sample t-test, with a 95% CI. No pre-tests for carry-over effect were performed as a part of the primary analysis. Tests for carry-over were done and are reported separately from results of primary analysis. All hypotheses were tested at a two-sided nominal significance level of 0.05 and p-values based on t-tests are reported. In addition, for the primary efficacy endpoints where the effects of the two highest doses on 10 primary variables were studied, a randomization test was performed which corrects for multiple testing and ensures that the key results are not affected by distributional concerns. In particular, 1 million permutations of the patients into the different study tracks were performed, generating a reference distribution for the maximum of the 10 t-statistics of the biomarkers under the null hypothesis of no drug effect. By comparing the observed t-statistic of each of the 10 biomarkers to this reference distribution, empirical p-values were computed. As was stated in the SAP prior to unblinding, it was considered likely that experimental manipulations would alter the effect of the drug on two of the primary markers; this was indeed the case and we are only reporting directly on 8 of the 10 primary markers but all 10 are included in the randomization test. […]

[4] = Steady-state DG-031 plasma concentrations and half-life, studies DG-031-201 and DG-031-203; format: in vivo, human; details: humans
Excerpt: Maintaining the minimum concentration using TIED dosing requires only about 70% of the drug that is required for a BID schedule. TID dosing is a more efficient process in terms of drug utilization when the goal is maintaining concentrations above a minimum threshold. It has the added advantage of reducing a patient's total exposure to the drug.

[5] = test system: CD40L; experiment: Study DG-031-204: CD40L; format: in vivo, human; details: after 4 weeks
Protocol: An additional single site, open label study was carried out to obtain biomarker and safety data on additional DG-031 doses (i.e., 1000 mg and 1500 mg). This study examined the safety, tolerability and dose-related effects of DG-031 on inflammatory biomarkers including: LTB4, hsCRP, and MPO. A total of 119 patients with a prior history of CAD and MI were randomized to receive either 1000 mg DG-031 (500 mg BID) or 1500 mg DG-031 (500 mg TID) daily for 4-6 weeks. Treatment with DG-031 in addition to the subject's standard care, medication, and treatment, was prescribed by the patient's cardiologist. A majority of the subjects received statin therapy before, during and after the study. Follow-up assessments were performed 2 weeks after the end of study drug administration.
The biomarkers were analyzed as described in Example 1. Statistical analysis of the data was carried out using a one-sample t-test on change from baseline with a two-sided nominal significance level of 0.050. Biomarker concentrations were log-transformed and a simple last observation carried forward (LOCF) scheme was used to impute missing observations.
CD40L was measured at 2-week intervals. […] After 4 weeks, there was a 22% (p<0.001; n=55) reduction in CD40L in the 500 mg BID group and a 21% (p<0.001; n=57) reduction in the 500 mg TID group. CD40L levels remained suppressed at the 2 week follow up visit.

For `O=C(O)[C@@H](c1ccc(OCc2ccc3ccccc3n2)cc1)C1CCCC1` [DG-031, (R)-(+)-alpha-cyclopentyl-4-(2-quinolinylmethoxy)-Benzeneacetic acid], the “Carry-over effect, MPO in whole blood, corr. for wbc” value [1] was 0.01, the “Carry-over effect, Amyloid A” value [2] was −0.14 and the “Reduction in CRP” value ([3]; 250 mg BID and TID, end of wash-out period (week 6)) was 25%. The “CRP, change” value ([3]; 250 mg BID) was −24%, the “CRP, change” value ([3]; 250 mg QD) was −6% and the “CRP, change” value ([3]; 250 mg TID) was −13% (St. 201). For the same molecule, the “Carry-over effect, CRP” value ([3]; difference visit 2 to 5, 500 and 750 mg/day vs placebo) was −0.28, the “Reduction of serum CRP” value ([3]; higher two dose groups (250 mg BID and 250 mg TID), at 2 weeks, p=0.07) was 16% and the Dominant half-life [4] was 2.5 to 3 h. For the same molecule, the “Reduction in CD40L” value ([5]; 500 mg BID) was 22% and the “Reduction in CD40L” value ([5]; 500 mg TID) was 21%.
